One data set relates to A673 cells. The data set can be described thus: Single agent assessment, ATPLite cell viability, 72 hour treatment. The data set is classed as cell-based, human. As to the method:
(§1) Briefly, cell lines were preserved in liquid nitrogen and thawed and expanded in growth media containing full serum. As the cells reached expected doubling times, the screening assay began. Cells were seeded in growth media and equilibrated via centrifugation. The cell cultures were placed in incubators and then underwent treatment. Assay plates were collected and ATP levels were measured. Assay plates were incubated with combinations for seventy two (72) or ninety six (96) hours in simultaneous and sequential dosing schedules.
(§2) Cell lines that have been preserved in liquid nitrogen were thawed and expanded in growth media containing full serum. Once cells have reached expected doubling times, screening began. Cells were seeded in growth media in black 384-well tissue culture treated plates at cell densities as listed in Appendix 1 incorporated into and part of this specification. Cells were equilibrated in assay plates via centrifugation and placed in incubators (attached to the Dosing Modules) at 37° C. for 24 hours before treatment. […] These Tzero (T0) plates were read using ultra-sensitive luminescence on Envision plate readers. Assay plates were incubated with compounds for 72 and were then analyzed using ATPLite™.
(§3) Chalice Analyzer allows two ways of visualizing single agent dose response curves. The Logistics Curve fit modeling in Analyzer uses sigmoidal modeling of the data points. In most contexts, the Logistics Curve fit will accurately model the dose response curve. All subsequent analyses for the single agent and combination activities of SRA737 contained within the Examples use the Linear Interpolation Curve fit.
(§4) A GI 100% represents complete growth inhibition (cytostasis) and in this case cells treated with compound for 72 or 96 hours would have the same endpoint reading as T0 control cells. A GI of 200% represents complete death (cytotoxicity) of all cells in the culture well and in this case the T reading at 72 or 96 hours will be lower than the T0 control (values near or at zero). These GI calculations were used in all single agent and combination data analysis for the combination screen.
(§5) Single agent activity of SRA737 and four PARP inhibitors in each of 10 cancer cell lines comprising breast, ovarian, prostate sarcoma and head and neck cancer cells was assessed (FIGS. 3-9). The 10 cancer cell lines examined were: A673, B-474, CAL-27, DU-145, MDA-MB-231, OVCAR-3, OVCAR-5, PC-3, HT-29 and SK-BR-3. The cell lines were screened with a 72 hour treatment schedule. Cell viability was measured by detection of ATP metabolism using an ATP monitoring luminescence detection assay (ATPLite™) GI50, IC50, Maximum Response Observed (Max Response) were calculated (FIG. 5).
In general terms: ATP-based viability assays read luminescence as a measure of living cells.

The test system of a further data set is BT-474 cells. Described as above. The data set is classed as cell-based, human. The procedure:
as §1, §2, §3, §4, §5

The next data set relates to CAL-27 cells. The data set is described as above. It is filed as cell-based, human. The procedure:
as §1, §2, §3, §4, §5

A further data set relates to DU145 cells. The description is as above. The data set is classed as cell-based, human. As to the method: as §1, §2, §3, §4, §5
The subject of a further data set is HT-29 cells. The data set is described as above. The data set is classed as cell-based, human. The procedure: as §1, §2, §3, §4, §5
Another data set deals with MDA-MB-231 cells. The data set is described as above. It is filed as cell-based, human. As to the method: as §1, §2, §3, §4, §5
The subject of another data set is OVCAR-3 cells. Described as above. The data set is classed as cell-based, human. The procedure: as §1, §2, §3, §4, §5
The next data set relates to OVCAR-5 cells. Described as above. It is filed as cell-based, human. As to the method: as §1, §2, §3, §4, §5
Another data set relates to PC-3 cells. The description is as above. It is filed as cell-based, human. The procedure: as §1, §2, §3, §4, §5
Another data set concerns SK-BR-3 cells. Described as above. The data set is classed as cell-based, human. The procedure: as §1, §2, §3, §4, §5
For another data set, the system named is 10 cancer cell lines. It is filed as cell-based. The conditions noted are these: for single agent activity across the cancer cell lines tested (in words): 10 cancer cell lines. The procedure:
as §1, §2, §3, §4, §5

The text below walks through data of patent publication US11596637B2, “CHK1 (SRA737)/PARPi combination methods of inhibiting tumor growth” (SIERRA ONCOLOGY, INC., priority 2017, dated 2023).

Read-outs that look alike come from different tables or passages of the source.

Turning to `N#Cc1cnc(Nc2cc(NCC3CNCCO3)c(C(F)(F)F)cn2)cn1` (centres unmarked) [SRA737, 5-[[4-[[morpholin-2-yl]methylamino]-5-(trifluoromethyl)-2-pyridyl]amino]pyrazine-2-carbonitrile], the “sensitivity of the cell line to the single agent” value with A673 cells is given as “intermediate sensitivity”; with BT-474 cells, “least sensitivity”; in the data set on CAL-27 cells, “least sensitivity”; in the data set on DU145 cells, “intermediate sensitivity”; in the data set on HT-29 cells, “intermediate sensitivity”; in the data set with MDA-MB-231 cells, “least sensitivity”. Further, the “sensitivity of the cell line to the single agent” value in the data set on OVCAR-3 cells was “intermediate sensitivity”; with OVCAR-5 cells, “highest sensitivity”; with PC-3 cells it was “least sensitivity”; in the data set on SK-BR-3 cells, “highest sensitivity”. Also, the “number of cancer cell lines in which single agent activity was demonstrated” value with 10 cancer cell lines (of the 10 cancer cell lines, 72 hour treatment) turned out to be 8. In addition, the “kind of single agent effect (cytotoxic / cytostatic)” value was “cytostatic” in the data set with 10 cancer cell lines (the remaining six responsive cell lines) and “modestly cytotoxic” with 10 cancer cell lines (the two most responsive cell lines).
Take `CNCc1ccc(-c2[nH]c3cc(F)cc4c3c2CCNC4=O)cc1` [Rucaparib]: the “single agent activity across the cancer cell lines tested (in words)” value in the data set on 10 cancer cell lines (72 hour treatment) is on record as “activity in most of the cancer cell lines tested”.
The same measure, in the same setting: as for `O=C(c1cc(Cc2n[nH]c(=O)c3ccccc23)ccc1F)N1CCN(C(=O)C2CC2)CC1` [Olaparib], the entry is “activity in most of the cancer cell lines tested”; as for `Cn1ncnc1[C@H]1c2n[nH]c(=O)c3cc(F)cc(c23)N[C@@H]1c1ccc(F)cc1` [BMN 673, Talazoparib], “activity in most of the cancer cell lines tested”; as for `NC(=O)c1cccc2cn(-c3ccc([C@@H]4CCCNC4)cc3)nc12` [Niraparib], “activity in most of the cancer cell lines tested”.
